Measurements: ChEMBL document CHEMBL3739378, “Nocarimidazoles A and B from a Marine-Derived Actinomycete of the Genus Nocardiopsis” (2015)
Converted amounts (≈) assume the structure as drawn. The source made the active and inactive calls. The rule behind the calls is not given here.

Columns and labels:
[1] = target: Acetylcholinesterase (Homo sapiens) (UniProt P22303); assay: Inhibition of AChE (unknown origin) at 100 ug/ml for 15 mins by spectrophotometry
ACHN = assay: Cytotoxicity against human ACHN cells; format: functional, cell-based
A498 = assay: Cytotoxicity against human A498 cells; format: functional, cell-based
Bacillus subtilis = assay: Antibacterial activity against Bacillus subtilis ATCC 6633 after 24 hrs; format: functional; details: ATCC 6633, 24 h
[2] = test system: Staphylococcus epidermidis; assay: Antibacterial activity against Staphylococcus epidermidis ATCC 12228 after 24 hrs; format: functional; details: ATCC 12228, 24 h

Acetylcholinesterase (Homo sapiens), sequence (P22303 whole entry): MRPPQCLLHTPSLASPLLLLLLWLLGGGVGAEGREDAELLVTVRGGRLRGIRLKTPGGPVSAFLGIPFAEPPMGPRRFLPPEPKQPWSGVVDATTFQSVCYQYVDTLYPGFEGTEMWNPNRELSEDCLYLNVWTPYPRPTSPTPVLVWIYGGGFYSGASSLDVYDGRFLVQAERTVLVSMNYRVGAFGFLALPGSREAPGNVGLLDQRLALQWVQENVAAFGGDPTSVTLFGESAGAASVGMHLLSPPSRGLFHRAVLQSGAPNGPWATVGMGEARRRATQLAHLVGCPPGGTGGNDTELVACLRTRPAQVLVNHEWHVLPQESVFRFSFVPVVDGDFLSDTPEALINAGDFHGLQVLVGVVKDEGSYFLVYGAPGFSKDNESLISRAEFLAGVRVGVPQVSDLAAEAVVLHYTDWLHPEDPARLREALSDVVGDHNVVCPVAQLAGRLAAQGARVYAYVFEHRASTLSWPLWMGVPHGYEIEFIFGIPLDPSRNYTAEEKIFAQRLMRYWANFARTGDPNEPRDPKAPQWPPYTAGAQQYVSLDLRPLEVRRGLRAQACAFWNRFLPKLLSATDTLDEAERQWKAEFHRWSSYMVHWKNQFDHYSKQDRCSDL

SMILES	inhibition [1]	Activity (ACHN)	Activity (A498)	MIC (Bacillus subtilis)	MIC [2]
CCC(C)CCCCCCC(=O)c1nc[nH]c1N (centres undefined)	Active	inactive	inactive	64 µg/mL (≈ 255 µM)	
CC(C)CCCCCCC(=O)c1nc[nH]c1N	Active	inactive	inactive	64 µg/mL (≈ 270 µM)	64 µg/mL (≈ 270 µM)
